According to ChEMBL document CHEMBL4020759, “Sulfoximines as ATR inhibitors: Analogs of VE-821” (2017):

What was measured:
Assay type in all cases: functional
OVCAR-8 = assay: Growth inhibition of human OVCAR8 cells assessed as cell growth at 10 uM incubated for 48 hrs by sulforhodamine B assay; details: OVCAR-8, 48 h, read-out: Activity
MDA-MB-231 = assay: Growth inhibition of human MDA-MB-231 cells assessed as cell growth at 10 uM incubated for 48 hrs by sulforhodamine B assay; details: MDA-MB-231, 48 h, read-out: Activity
SR = assay: Growth inhibition of human SR cells assessed as cell growth at 10 uM incubated for 48 hrs by sulforhodamine B assay; details: read-out: Activity
HCT-116 = assay: Growth inhibition of human HCT116 cells assessed as cell growth at 10 uM incubated for 48 hrs by sulforhodamine B assay; details: HCT-116, 48 h, read-out: Activity

| Compound | growth at 10 µM (OVCAR-8) [%] | growth at 10 µM (MDA-MB-231) [%] | growth at 10 µM (SR) [%] | growth at 10 µM (HCT-116) [%] |
| --- | --- | --- | --- | --- |
| C/S(=N\C#N)c1ccc(-c2cnc(N)c(C(=O)Nc3ccccc3)n2)cc1 (stereo not drawn) | 102 | 101 | 57.1 | 73.1 |
| CS(=O)(=NC#N)c1ccc(-c2cnc(N)c(C(=O)Nc3ccccc3)n2)cc1 (stereo not drawn) | 96.8 | 102 | 44 | 86.8 |
